Patent US20230371510A1, “APPLICATION OF PYRROLE-2-CARB[…] CONTROLLING PLANT ROOT-KNOT NEMATODES” (Yunnan University, priority 2022, published 2023)
Values after ≈ are worked out from the molar mass of the structure shown. Like-named read-outs stand apart in the source and are kept apart here.

What was measured:
Assay type in all cases: in vivo
[1] = system: Meloidogyne incognita; assay: Nematicidal (insecticidal) mortality assay on second instar larvae in well plate; conditions: for mortality at 12.5 µg/mL: 12.5 μg/ml; for mortality at 12.5 µg/mL / mortality at 25 µg/mL / mortality at 50 µg/mL / mortality at 100 µg/mL / mortality at 200 µg/mL / mortality at 400 µg/mL: 25° C, read-out: Corrected mortality (%); for mortality at 25 µg/mL: 25 μg/ml; for mortality at 50 µg/mL: 50 μg/ml; for mortality at 100 µg/mL: 100 μg/ml; for mortality at 200 µg/mL: 200 μg/ml; for mortality at 400 µg/mL: 400 μg/ml; for LC50: calculated with SPSS 26.0
Method: (§1) 0.5 mg-1.5 mg of pyrrole-2-carboxaldehyde was dissolved in methanol and diluted with sterile distilled water as the test liquid. The dilution concentrations of each liquid medicine were 12.5 μg/ml, 25 μg/ml, 50 μg/ml, 100 μg/ml, 200 μg/ml and 400 μg/ml respectively, and the mass concentration of methanol in each liquid medicine was 5%. Water containing 5% methanol was used as a blank control.
The infected tomato roots with Meloidogyne incognita were washed with water, and the oocysts of Meloidogyne incognita were picked by a dissecting needle and placed in 0.4 M KCl solution. The oocysts were washed and disinfected in a 5 ml centrifuge tube with 4 ml sterile water (three times), 1 ml sterile penicillin-streptomycin double antibody solution and 3 ml 0.1% NaClO solution, and the supernatant was removed in each step by short centrifugation (8000 rpm for 30 seconds). The washed eggs were incubated in 0.4 M ZnCl2 solution for 48 h, and the second instar larvae were collected in a 1.5 ml centrifuge tube with a pipette and enriched by short centrifugation (5000 rpm for 30 seconds) for subsequent use.
200 μl of the above test liquid was added to a 20-well plate with 100-150 live nematodes and placed at 25° C. […] Method for identification of mortality: 1-5 drops of 5% NaCl solution were added to the wells of the treatment plate and observed after 2 minutes; Dead nematodes were stiff and unresponsive to stimulation with a needle, while surviving nematodes were curled or wriggled.
(§2) The whole experiment was repeated three times with the test liquid without samples as the control, and the average value was taken three times to calculate the corrected mortality.
(§3) Mortality %=(number of dead nematodes/(number of dead nematodes+number of surviving nematodes))×100%
(§4) Corrected mortality %=sample mortality−control mortality

[2] = system: Meloidogyne arenaria; assay: Nematicidal (insecticidal) mortality assay in well plate; conditions: 48 h
Method: as §1
(§5) In addition, root-knot nematodes such as Meloidogyne hapla, Meloidogyne javanica and Meloidogyne arenaria were also prepared for testing.
(§6) 200 μl of the above test liquid was added to a 20-well plate with 100-150 live nematodes and placed at 25° C. Subsequently, the nematodes were examined under an optical microscope at 12 h, 24 h and 48 h, respectively, to calculate the mortality. Method for identification of mortality: 1-5 drops of 5% NaCl solution were added to the wells of the treatment plate and observed after 2 minutes; Dead nematodes were stiff and unresponsive to stimulation with a needle, while surviving nematodes were curled or wriggled.
as §2, §3, §4

[3] = system: Meloidogyne hapla; assay: as above; conditions: 48 h
Method: as §1, §5, §6, §2, §3, §4

[4] = system: Meloidogyne javanica; assay: as above; conditions: 48 h
Method: as §1, §5, §6, §2, §3, §4

## O=Cc1ccc[nH]1 [pyrrole-2-carboxaldehyde]
[1]; 12 h
  mortality at 12.5 µg/mL: 6.99 ± 1.99%
  mortality at 25 µg/mL: 15.8 ± 0.29%
  mortality at 50 µg/mL: 22.4 ± 0.43%
  mortality at 100 µg/mL: 24.3 ± 2.78%
  mortality at 200 µg/mL: 34.2 ± 1.74%
  mortality at 400 µg/mL: 47.5 ± 4.35%
[1]; 24 h
  mortality at 12.5 µg/mL: 16.6 ± 3.58%
  mortality at 25 µg/mL: 26.5 ± 0.53%
  mortality at 50 µg/mL: 36.63 ± 0.19%
  mortality at 100 µg/mL: 38.7 ± 2%
  mortality at 200 µg/mL: 64.3 ± 0.9%
  mortality at 400 µg/mL: 77.42 ± 0.58%
  LC50: 84.7 µg/mL (≈ 891 µM)
[1]; 36 h
  mortality at 12.5 µg/mL: 24.9 ± 4.7%
  mortality at 25 µg/mL: 36.3 ± 0.95%
  mortality at 50 µg/mL: 53.4 ± 3.16%
  mortality at 100 µg/mL: 62 ± 0.85%
  mortality at 200 µg/mL: 79.29 ± 0.7%
  mortality at 400 µg/mL: 93.2 ± 0.82%
[1]; 48 h
  mortality at 12.5 µg/mL: 30.3 ± 4.57%
  mortality at 25 µg/mL: 42.1 ± 1.51%
  mortality at 50 µg/mL: 56.6 ± 0.63%
  mortality at 100 µg/mL: 83.2 ± 1.29%
  mortality at 200 µg/mL: 93.3 ± 2.24%
  mortality at 400 µg/mL: 98.01 ± 0.2%
  LC50: 30.7 µg/mL (≈ 323 µM)
[1]; 72 h
  mortality at 12.5 µg/mL: 36.1 ± 5.08%
  mortality at 25 µg/mL: 48.5 ± 0.78%
  mortality at 50 µg/mL: 63.2 ± 0.99%
  mortality at 100 µg/mL: 88.27 ± 0.56%
  mortality at 200 µg/mL: 94.5 ± 1.89%
  mortality at 400 µg/mL: 99.26 ± 0.34%
[2]
  LC50: 31 µg/mL (≈ 326 µM)
[3]
  LC50: 31.6 µg/mL (≈ 333 µM)
[4]
  LC50: 33.6 µg/mL (≈ 353 µM)
